Assay [1] addresses T1, Human CARM1 (PRMT4) (Homo sapiens, UniProt Q86X55).
T1 construct: Flag-CARM1-His; made in house; host or cells: HEK 293F cells (BacMam baculovirus, pFastBacMam)
T1 sequence (Q86X55 2-585 isoform Q86X55-1): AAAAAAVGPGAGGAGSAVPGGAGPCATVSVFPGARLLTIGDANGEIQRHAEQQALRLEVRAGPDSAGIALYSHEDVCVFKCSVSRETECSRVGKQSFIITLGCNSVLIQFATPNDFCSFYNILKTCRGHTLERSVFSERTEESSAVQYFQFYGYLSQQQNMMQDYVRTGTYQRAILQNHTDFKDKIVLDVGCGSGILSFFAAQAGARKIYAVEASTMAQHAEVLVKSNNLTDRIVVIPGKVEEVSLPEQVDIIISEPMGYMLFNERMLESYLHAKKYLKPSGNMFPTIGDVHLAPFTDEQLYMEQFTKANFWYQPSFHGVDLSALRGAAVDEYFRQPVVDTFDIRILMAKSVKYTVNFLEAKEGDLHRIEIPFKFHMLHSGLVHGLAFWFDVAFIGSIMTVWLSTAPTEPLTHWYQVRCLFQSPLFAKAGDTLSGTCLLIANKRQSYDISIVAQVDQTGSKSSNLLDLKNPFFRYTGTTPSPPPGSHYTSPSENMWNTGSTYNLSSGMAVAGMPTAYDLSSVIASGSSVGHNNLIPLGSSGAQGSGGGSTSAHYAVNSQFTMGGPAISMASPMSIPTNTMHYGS
Briefly: CARM1 biochemical assay (3H-SAM Flashplate, peptide substrate). The settings on record: read-out: CARM1_ IC50. An outline of the steps: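 FLAG/His-tagged human CARM1 (isoform 1, Δ539-561, baculovirus-expressed), 0.25 nM, preincubated 30 min at room temperature with compound (2% DMSO) in 20 mM Bicine pH 7.6, then reacted with 30 nM 3H-SAM and 250 nM biotinylated H3 16-30 peptide (R26 monomethyl). Stopped with 300 uM cold SAM; labelled peptide captured on streptavidin Flashplate; % inhibition versus DMSO and 1 mM SAH controls fitted to a 4- or 3-parameter curve.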

Assay [2] deals with PRMT5 (Homo sapiens, UniProt O14744). Description: PRMT5 IC50 (Table 2; no method described). The assay is classed as biochemical. The settings on record: read-out: PRMT5_ IC50.
Chain of PRMT5 (O14744 whole entry, species assumed): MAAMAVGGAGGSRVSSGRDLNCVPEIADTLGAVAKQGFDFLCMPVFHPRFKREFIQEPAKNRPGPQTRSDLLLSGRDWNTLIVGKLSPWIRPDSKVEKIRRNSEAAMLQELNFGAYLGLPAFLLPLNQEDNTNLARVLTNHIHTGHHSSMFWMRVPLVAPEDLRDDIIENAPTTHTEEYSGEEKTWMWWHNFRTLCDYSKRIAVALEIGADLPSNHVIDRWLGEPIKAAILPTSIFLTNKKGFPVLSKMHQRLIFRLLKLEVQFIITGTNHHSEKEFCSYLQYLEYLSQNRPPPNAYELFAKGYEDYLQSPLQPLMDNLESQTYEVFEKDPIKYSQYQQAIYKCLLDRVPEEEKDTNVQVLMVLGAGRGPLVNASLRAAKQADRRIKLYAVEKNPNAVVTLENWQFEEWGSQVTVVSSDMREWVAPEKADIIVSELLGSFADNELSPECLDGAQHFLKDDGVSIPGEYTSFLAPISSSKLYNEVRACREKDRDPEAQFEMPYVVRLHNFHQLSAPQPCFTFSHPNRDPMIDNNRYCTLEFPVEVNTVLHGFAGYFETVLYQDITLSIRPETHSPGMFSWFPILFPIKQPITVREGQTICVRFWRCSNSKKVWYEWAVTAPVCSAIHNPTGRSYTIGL
Chain of PRMT5 (Q9BQA1 whole entry partner, species assumed): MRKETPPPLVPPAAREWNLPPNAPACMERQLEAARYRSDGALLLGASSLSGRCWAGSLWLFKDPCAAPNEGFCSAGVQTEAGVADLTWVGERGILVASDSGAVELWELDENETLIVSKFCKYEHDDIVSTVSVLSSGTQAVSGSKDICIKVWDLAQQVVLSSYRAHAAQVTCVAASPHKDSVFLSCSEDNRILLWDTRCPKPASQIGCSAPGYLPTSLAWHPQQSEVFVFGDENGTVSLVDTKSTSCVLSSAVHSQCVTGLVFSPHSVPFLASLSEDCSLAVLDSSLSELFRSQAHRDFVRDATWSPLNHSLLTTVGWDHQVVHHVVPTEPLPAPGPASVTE

As a reminder, the IC50 is the concentration that gives 50% inhibition. For the compound `CC(C)n1ncc2c(C(=O)N3CCc4ccccc4C3)cc(-c3cccc(CNCCN)c3)nc21` [Compound 269], the IC50 came to 79.9 nM in assay [1] and 13100 nM in assay [2].

As to `NCCNCc1ccc(-c2ccc3cnn(Cc4cccc(C(=O)N5CCCCC5)c4)c3c2)cc1` [Compound 326], the figures for the IC50 in assay [1] and in assay [2] were 1270 nM and 170 nM, respectively.

As to `NCCNCc1ccc(-c2ccc3ncn(Cc4cccc(C(=O)NCc5ccccc5)c4)c3c2)cc1` [Compound 337], the IC50 in assay [1] was 5350 nM; in assay [2], 33.3 nM.

On to `CC(=O)c1cccc(Cn2ncc3ccc(-c4ccc(CNCCN)cc4)cc32)c1` [Compound 343], for which the IC50 stood at 8890 nM in assay [1] and 119 nM in assay [2].

Turning to `CC(C)n1ncc2c(C(=O)NCc3cccc(F)c3)cc(-c3cccc(CN(C)CCN)c3)nc21` [Compound 251], the results for the IC50 in assay [1] and in assay [2] were 59.1 nM and 47300 nM, respectively.

Regarding `NCCNCc1ccc(-c2ccc3cnn(Cc4cccc(C(=O)N5CCCC5)c4)c3c2)cc1` [Compound 324], the IC50 turned out to be 887 nM in assay [1] and 97.3 nM in assay [2].

Turning to `CC(C)n1ncc2c(C(=O)N(C)Cc3cccc(Cl)c3)cc(-c3cccc(CN(C)CCN)c3)nc21` [Compound 266], the IC50 turned out to be 74.9 nM in assay [1] and 1790 nM in assay [2].

In the case of `NCCNCc1ccc(-c2ccc3ncn(Cc4cccc(C(=O)Nc5ccccc5)c4)c3c2)cc1` [Compound 330], the IC50 in assay [1] worked out at 2720 nM; in assay [2], 52.4 nM.

For the compound `CNCCN(C)Cc1cccc(-c2cc(C(=O)N(C)Cc3ccccc3F)c3cnn(C(C)C)c3n2)c1` [Compound 304], the values for the IC50 in assay [1] and in assay [2] were 239 nM and 670 nM, respectively.

Take `NCCNCc1ccc(-c2ccc3ncn(Cc4cccc(C(=O)NC5CC5)c4)c3c2)cc1` [Compound 342]: the IC50 in assay [1] came to 6480 nM; in assay [2] it was 110 nM.

Take `CN1CCCN(C(=O)c2cccc(Cn3cnc4ccc(-c5ccc(CNCCN)cc5)cc43)c2)CC1` [Compound 331]: the IC50 in assay [1] was determined as 2810 nM; in assay [2], 118 nM.

For the compound `CN1CCN(C(=O)c2cccc(Cn3ncc4ccc(-c5ccc(CNCCN)cc5)cc43)c2)CC1` [Compound 335], the IC50 was found to be 3510 nM in assay [1] and 73.8 nM in assay [2].

Regarding `Cc1cc(C)c(CN2Cc3ccc(-c4ccc(CNCCN)cc4)cc3C2=O)c(=O)[nH]1` [Compound 390], the IC50 in assay [1] came to 17500 nM; in assay [2], 472 nM.

Regarding `CN1CCN(CCNC(=O)c2cccc(Cn3cnc4ccc(-c5ccc(CNCCN)cc5)cc43)c2)CC1` [Compound 333], the IC50 is 3060 nM in assay [1] and 94.7 nM in assay [2].

Turning to `CC(C)n1ncc2c(C(=O)N(C)Cc3ccccc3Cl)cc(-c3cccc(CN(C)CCN)c3)nc21` [Compound 242], the IC50 stood at 51.9 nM in assay [1] and 235 nM in assay [2].

Turning to `CC(C)n1ncc2c(C(=O)N(C)[C@@H](C)c3ccccc3)cc(-c3cccc(CN(C)CCN)c3)nc21` [Compound 193], the IC50 in assay [1] amounted to 13.5 nM; in assay [2] it was 790 nM.

Regarding `COc1ccc(Cn2cnc3ccc(-c4cccc(CNCCN)c4)cc32)cc1` [Compound 309], the IC50 in assay [1] worked out at 272 nM; in assay [2] it was 1070 nM.

Consider `NCCNCc1ccc(-c2ccc3ncn(Cc4cccc(C(=O)NC5CCCC5)c4)c3c2)cc1` [Compound 332], for which the IC50 stood at 2840 nM in assay [1] and 85.9 nM in assay [2].

Take `NCCNCc1ccc(-c2ccc3ncn(Cc4cccc(C(=O)Nc5cccc6c5CCCC6)c4)c3c2)cc1` [Compound 328]: the IC50 in assay [1] stood at 2190 nM; in assay [2], 80.5 nM.

As for `CC(C)n1ncc2c(C(=O)N(C)Cc3cccc(F)c3)cc(-c3cccc(CN(C)CCN)c3)nc21` [Compound 287], the IC50 in assay [1] came to 153 nM; in assay [2], 4170 nM.

On to `CNCCN(C)Cc1cccc(-c2cc(C(=O)N(C)C(C)c3ccccc3)c3cnn(C(C)C)c3n2)c1` (centres unmarked) [Compound 246], for which the IC50 came out at 54.3 nM in assay [1] and 577 nM in assay [2].

Turning to `NCCNCc1ccc(-c2ccc3ncn(Cc4cccc(C(=O)NC5CCCc6ccccc65)c4)c3c2)cc1` (centres unmarked) [Compound 325], the IC50 in assay [1] worked out at 1030 nM; in assay [2], 25.3 nM.

`CN1CCN(C(=O)c2cccc(Cn3cnc4ccc(-c5ccc(CNCCN)cc5)cc43)c2)CC1` [Compound 329]: the IC50 in assay [1] stood at 2480 nM; in assay [2], 136 nM.

Take `COCCNC(=O)c1cccc(Cn2cnc3ccc(-c4ccc(CNCCN)cc4)cc32)c1` [Compound 345]: the IC50 came to 9390 nM in assay [1] and 114 nM in assay [2].

Consider `CS(=O)(=O)c1ccc(Cn2cnc3ccc(-c4ccc(CNCCN)cc4)cc32)cc1` [Compound 340], for which the IC50 turned out to be 5940 nM in assay [1] and 105 nM in assay [2].

In the case of `CNCCN(C)Cc1cccc(-c2cc(C(=O)N(C)Cc3cccc(Cl)c3)c3cnn(C(C)C)c3n2)c1` [Compound 237], the IC50 in assay [1] is 48.1 nM; in assay [2], 1480 nM.

As for `NCCNCc1ccc(-c2ccc3cnn(Cc4cccc(Oc5ccccc5)c4)c3c2)cc1` [Compound 334], the results for the IC50 in assay [1] and in assay [2] were 3130 nM and 467 nM, respectively.

On to `CNCCN(C)Cc1cccc(-c2cc(C(=O)N[C@@H](C)c3ccccc3)c3cnn(-c4ccccn4)c3n2)c1` [Compound 303], for which the IC50 was 235 nM in assay [1] and 13300 nM in assay [2].

As to `CC(C)n1ncc2c(C(=O)N(C)Cc3ccc(F)cc3)cc(-c3cccc(CN(C)CCN)c3)nc21` [Compound 240], the results for the IC50 in assay [1] and in assay [2] were 49.7 nM and 7420 nM, respectively.

`CNCCN(C)Cc1cccc(-c2cc(C(=O)N[C@@H](C)c3ccccc3)c3cnn(Cc4ccccc4F)c3n2)c1` [Compound 283]: the figures for the IC50 in assay [1] and in assay [2] were 131 nM and 29200 nM, respectively.

For `CN(C(=O)c1cccc(Cn2cnc3ccc(-c4ccc(CNCCN)cc4)cc32)c1)C1CCCC1` [Compound 346], the IC50 was 10000 nM in assay [1] and 116 nM in assay [2].
